Test results as given in PMC10320503, “Rapid-reaction kinetics of the butyryl-CoA dehydrogenase component of the electron-bifurcating crotonyl-CoA-dependent NADH:ferredoxin oxidoreductase from Megasphaera elsdenii” (The Journal of Biological Chemistry, 2023).
One block for each molecule: values may come before it.

Legend:
[1] = molecular target: T1, bcd (butyryl-CoA dehydrogenase) (Megasphaera elsdenii, UniProt Q06319); experiment: UV-visible titration and EPR of the bound flavin; type: binding; conditions: dithionite titrations at pH 6.0, 7.5 and 9.0, 25 °C; EPR at 77 K
T1 construct: isolated bcd component without EtfAB, C-terminal Strep II tag (pASG-IBA3), expressed in E. coli BL21; FAD-loaded, CoA persulfide removed by dithionite
T1 sequence (Q06319 1-383): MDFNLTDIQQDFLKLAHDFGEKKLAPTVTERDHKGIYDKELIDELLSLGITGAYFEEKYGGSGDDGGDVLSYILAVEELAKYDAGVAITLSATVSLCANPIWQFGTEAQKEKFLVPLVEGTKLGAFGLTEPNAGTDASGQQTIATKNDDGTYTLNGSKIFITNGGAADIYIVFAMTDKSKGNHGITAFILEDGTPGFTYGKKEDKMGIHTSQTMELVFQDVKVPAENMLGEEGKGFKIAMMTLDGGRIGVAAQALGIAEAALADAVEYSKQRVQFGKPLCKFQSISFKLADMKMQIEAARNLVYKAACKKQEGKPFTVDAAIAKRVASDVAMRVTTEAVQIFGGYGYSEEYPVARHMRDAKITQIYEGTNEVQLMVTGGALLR

[2] = molecular target: T1, bcd (butyryl-CoA dehydrogenase); experiment: stopped-flow reduction of bcd FAD at […] nm, hyperbolic fit of kobs versus [butyryl-CoA]; type: biochemical; conditions: oxidized bcd 10 μM, 50 mM Tris-HCl, 150 mM NaCl, pH 7.5, 10 °C, anaerobic; reverse of the physiological direction; read-out: Kd (apparent)
[3] = molecular target: T1, bcd (butyryl-CoA dehydrogenase); experiment: stopped-flow reoxidation of reduced bcd; charge-transfer complex absorbance; type: biochemical; conditions: dithionite-reduced bcd, 50 mM Tris-HCl, 150 mM NaCl, pH 7.5, 10 °C, anaerobic
[4] = molecular target: T2, EtfAB, the electron-transferring flavoprotein component of the crotonyl-CoA-dependent NADH:ferredoxin … (Megasphaera elsdenii, UniProt O85692 1-338; O85691 1-270); experiment: stopped-flow spectrophotometry (rate of electron transfer against protein concentration); prereduced EtfAB mixed with oxidized bcd, anaerobic, monitored at 450 nm; 1:1 ratio at 2 to 70 uM, or 3 uM EtfAB with 3 to 24 uM bcd; 50 mM Tris-HCl, 150 mM NaCl, pH 7.5, 25 C; Kd limit inferred from the rate constant being independent of concentration; conditions: both partners purified
T2 construct: Electron-transferring flavoprotein alpha subunit (EtfA), Megasphaera elsdenii; Electron-transferring flavoprotein beta subunit (EtfB), Megasphaera elsdenii; prereduced with sodium dithionite before the assay; Plasmid derived from pASG-IBA3; also called prereduced EtfAB; source: E. coli BL21, purified (Strep-Tactin XT Superflow)
T2 sequence (looked up) 1: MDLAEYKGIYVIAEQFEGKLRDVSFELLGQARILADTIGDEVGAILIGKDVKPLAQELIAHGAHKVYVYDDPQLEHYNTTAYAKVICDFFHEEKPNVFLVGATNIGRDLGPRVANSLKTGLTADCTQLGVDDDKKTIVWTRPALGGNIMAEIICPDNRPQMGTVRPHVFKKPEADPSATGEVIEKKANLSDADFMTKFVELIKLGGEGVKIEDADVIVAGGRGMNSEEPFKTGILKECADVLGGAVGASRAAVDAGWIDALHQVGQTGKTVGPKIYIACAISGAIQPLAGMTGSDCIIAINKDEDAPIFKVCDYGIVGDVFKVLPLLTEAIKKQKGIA
T2 sequence (looked up) 2: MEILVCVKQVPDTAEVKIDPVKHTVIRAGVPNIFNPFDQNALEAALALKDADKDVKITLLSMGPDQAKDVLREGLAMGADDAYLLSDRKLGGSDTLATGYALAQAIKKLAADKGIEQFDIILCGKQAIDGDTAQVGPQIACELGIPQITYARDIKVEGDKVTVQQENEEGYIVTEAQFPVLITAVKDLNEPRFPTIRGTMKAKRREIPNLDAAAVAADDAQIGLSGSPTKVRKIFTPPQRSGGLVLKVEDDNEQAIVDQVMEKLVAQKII

Molecule: Cc1cc2nc3c(=O)[nH]c(=O)nc-3n(C[C@H](O)[C@H](O)[C@H](O)COP(=O)(O)OP(=O)(O)OC[C@H]3O[C@@H](n4cnc5c(N)ncnc54)[C@H](O)[C@@H]3O)c2cc1C [FAD]
UV-visible titration and EPR of the bound flavin [1]: the one-electron reduced FAD neutral semiquinone (FADH•) accumulates transiently

Kd [2]: 60 µM
Molecule: CCCC(=O)SCCNC(=O)CCNC(=O)[C@H](O)C(C)(C)COP(=O)(O)OP(=O)(O)OC[C@H]1O[C@@H](n2cnc3c(N)ncnc32)[C@H](O)[C@@H]1OP(=O)(O)O [butyryl-CoA]

Molecule: C/C=C/C(=O)SCCNC(=O)CCNC(=O)[C@H](O)C(C)(C)COP(=O)(O)OP(=O)(O)OC[C@H]1O[C@@H](n2cnc3c(N)ncnc32)[C@H](O)[C@@H]1OP(=O)(O)O [crotonyl-CoA]
stopped-flow reoxidation of reduced bcd; charge-transfer complex absorbance [3]: indicating extremely rapid and tight binding of crotonyl-CoA to bcd

Kd [4]: < 2 µM
B1: butyryl-CoA dehydrogenase (bcd) component of EtfAB-bcd from Megasphaera elsdenii (enzyme)
chain: MDFNLTDIQQDFLKLAHDFGEKKLAPTVTERDHKGIYDKELIDELLSLGITGAYFEEKYGGSGDDGGDVLSYILAVEELAKYDAGVAITLSATVSLCANPIWQFGTEAQKEKFLVPLVEGTKLGAFGLTEPNAGTDASGQQTIATKNDDGTYTLNGSKIFITNGGAADIYIVFAMTDKSKGNHGITAFILEDGTPGFTYGKKEDKMGIHTSQTMELVFQDVKVPAENMLGEEGKGFKIAMMTLDGGRIGVAAQALGIAEAALADAVEYSKQRVQFGKPLCKFQSISFKLADMKMQIEAARNLVYKAACKKQEGKPFTVDAAIAKRVASDVAMRVTTEAVQIFGGYGYSEEYPVARHMRDAKITQIYEGTNEVQLMVTGGALLR
notes: Butyryl-CoA dehydrogenase, Megasphaera elsdenii, locus tag Mels_2128; oxidized form in the assay; Plasmid derived from pASG-IBA3; also called oxidized bcd; source: E. coli BL21, purified (Strep-Tactin XT Superflow)
